In one series the target is T1, rat liver FBPase (Rattus norvegicus, UniProt P19112).
T1 construct: made in house; host or cells: E. coli BL21
T1 sequence (P19112 2-363 limits assumed): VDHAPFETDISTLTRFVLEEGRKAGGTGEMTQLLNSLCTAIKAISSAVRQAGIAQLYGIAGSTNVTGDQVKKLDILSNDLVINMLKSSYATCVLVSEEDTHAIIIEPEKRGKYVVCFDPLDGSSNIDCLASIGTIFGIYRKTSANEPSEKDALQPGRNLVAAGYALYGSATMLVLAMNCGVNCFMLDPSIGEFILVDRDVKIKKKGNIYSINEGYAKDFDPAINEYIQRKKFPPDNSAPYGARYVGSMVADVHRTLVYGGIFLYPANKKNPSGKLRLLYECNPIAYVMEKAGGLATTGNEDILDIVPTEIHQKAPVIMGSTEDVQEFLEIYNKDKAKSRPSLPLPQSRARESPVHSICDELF
Kind of series: Inhibition of Rat Liver FBPase. Format: biochemical. Conditions: read-out: IC50 (rlFBPase). As for the experimental part:
E. coli strain BL21 transformed with a human liver FBPase-encoding plasmid was obtained from Dr. M. R. El-Maghrabi at the State University of New York at Stony Brook. The enzyme was typically purified from 10 liters of recombinant E. coli culture as described (M. Gidh-Jain et al., 1994, The Journal of Biological Chemistry 269, pp 27732-27738). Enzymatic activity was measured spectrophotometrically in reactions that coupled the formation of product (fructose 6-phosphate) to the reduction of dimethylthiazoldiphenyltetrazolium bromide (MTT) via NADP^+ and phenazine methosulfate (PMS), using phosphoglucose isomerase and glucose 6-phosphate dehydrogenase as the coupling enzymes. Reaction mixtures (200 μl) were made up in 96-well microtitre plates, and consisted of 50 mM Tris-HCl, pH 7.4, 100 mM KCl, 5 mM EGTA, 2 mM MgCl2, 0.2 mM NADP, 1 mg/ml BSA, 1 mM MTT, 0.6 mM PMS, 1 unit/ml phosphoglucose isomerase, 2 units/ml glucose 6-phosphate dehydrogenase, and 0.150 mM substrate (fructose 1,6-bisphosphate). Inhibitor concentrations were varied from 0.01 μM to 10 μM. Reactions were started by the addition of 0.002 units of pure hlFBPase, and were monitored for 7 minutes at 590 nm in a Molecular Devices Plate Reader (37° C.).
E. coli strain BL21 transformed with a rat liver FBPase-encoding plasmid was obtained from Dr. M. R. El-Maghrabi at the State University of New York at Stony Brook. Recombinant FBPase was purified as described (El-Maghrabi, M. R., and Pilkis, S. J. (1991) BioChem. Biophys. Res. Commun. 176, 137-144) The enzyme assay was identical to that described above for human liver FBPase.

The target in another series is T2, human liver FBPase (Homo sapiens, UniProt P09467).
T2 construct: made in house; host or cells: E. coli BL21
T2 sequence (P09467 2-338 limits assumed): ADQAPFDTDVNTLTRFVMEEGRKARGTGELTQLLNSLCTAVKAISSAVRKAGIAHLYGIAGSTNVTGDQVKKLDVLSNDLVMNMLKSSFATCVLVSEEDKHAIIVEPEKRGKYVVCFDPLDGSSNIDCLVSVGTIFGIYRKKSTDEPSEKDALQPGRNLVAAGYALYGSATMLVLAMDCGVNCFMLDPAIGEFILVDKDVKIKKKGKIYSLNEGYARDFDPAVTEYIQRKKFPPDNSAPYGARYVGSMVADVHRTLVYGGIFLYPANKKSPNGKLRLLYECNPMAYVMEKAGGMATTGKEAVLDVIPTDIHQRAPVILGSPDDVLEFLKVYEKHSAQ
Description: Inhibition of Human Liver FBPase. The following applies: read-out: IC50 (hlFBPase). Format: biochemical. How it is done:
[…] […] Enzymatic activity was measured spectrophotometrically in reactions that coupled the formation of product (fructose 6-phosphate) to the reduction of dimethylthiazoldiphenyltetrazolium bromide (MTT) via NADP^+ and phenazine methosulfate (PMS), using phosphoglucose isomerase and glucose 6-phosphate dehydrogenase as the coupling enzymes. […] Inhibitor concentrations were varied from 0.01 μM to 10 μM. Reactions were started by the addition of 0.002 units of pure hlFBPase, and were monitored for 7 minutes at 590 nm in a Molecular Devices Plate Reader (37° C.).

Each structure is given as a SMILES string. Counter-ions that a name gives are not always drawn. Bounds are passed on as bounds.

Take `Nc1nc2c(OCP(=O)(O)O)cc(C(=O)O)cc2s1` [Compound 29.6, 2-Amino-4-phosphonomethoxy-6-carboxybenzothiazole]: the melting point is > 230 °C (dec.).

Turning to `CCOC(=O)c1oc(N)nc1-c1ccc(P(=O)(O)O)o1` [Compound 10.27, 2-Amino-5-ethoxycarbonyl-4-[2-(5-phosphono)furanyl]oxazole], the half-maximal inhibitory concentration (IC50) on rat liver FBPase was 2900 nM; on human liver FBPase, 38 nM.

Regarding `CCc1sc(N)nc1C(=O)OCP(=O)(O)O` [Compound 18.3, 2-amino-5-ethyl-4-phosphonomethoxycarbonylthiazole], the figures for the IC50 at rat liver FBPase and at human liver FBPase were 490 nM and 50 nM, respectively.

Turning to `Nc1nc2c(OCP(=O)(O)O)cc(Cl)cc2s1` [Compound 31.3, 2-Amino-6-chloro-4-phosphonomethoxybenzothiazole], the melting point is > 250 °C (dec.).

On to `Cc1c(Cl)cc(OCP(=O)(O)O)c2nc(Cl)sc12` [Compound 37.2, 2-Chloro-4-phosphonomethoxy-6-chloro-7-methyl benzothiazole], for which the melting point is > 250 °C (dec.).

As to `CCc1cc(F)c(N)c2nc(-c3ccc(P(=O)(O)O)o3)n(CC(C)C)c12` [Compound A, 4-Amino-5-fluoro-7-ethyl-1-isobutyl-2-(2-phosphono-5-furanyl)benzimidazole], the IC50 on rat liver FBPase was 550 nM.

In turn, `CCc1cc(CC)c(-c2ccc(P(=O)(O)O)o2)nc1N` [Compound 15.4, 2-amino-3,5-diethyl-6-[2-(5-phosphono)furanyl]pyridine] registered a melting point of 217 to 218 °C. Further, the IC50 at rat liver FBPase was determined as 4100 nM.

Take `Nc1nc(-c2ccc(P(=O)(O)O)o2)c(-c2cccs2)s1` [Compound 6.3]: the IC50 on rat liver FBPase was 500 nM.

For the compound `CCOC(=O)c1sc(N)nc1-c1ccc(P(=O)(O)O)o1` [Compound 3.25, 2-Amino-5-ethoxycarbonyl-4-[2-(5-phosphono)furanyl]thiazole], the IC50 on rat liver FBPase is 500 nM.

For `CC(C)Cc1[se]c(N)nc1-c1ccc(P(=O)(O)O)o1` [Compound 3.70, 2-Amino-5-isobutyl-4-[2-(5-phosphono)furanyl]selenazole], the values for the IC50 at rat liver FBPase and on human liver FBPase were 150 nM and 40 nM, respectively.

For the compound `CCc1c(SC#N)cc(OCP(=O)(O)O)c2nc(N)sc12` [Compound 34.1, 2-amino-7-ethyl-6-thiocyano-4-phosphonomethoxybenzothiazole], the figures for the IC50 at rat liver FBPase and on human liver FBPase were 160 nM and 22 nM, respectively.

For `CC(C)Cc1sc(N)nc1-c1ccc(P(=O)(O)O)o1` [Compound 3.1, 2-amino-5-isobutyl-4-[2-(5-phosphono)furanyl]thiazole], the IC50 on rat liver FBPase was 180 nM.

As to `Nc1nc2c(OCP(=O)(O)O)cc(Cl)c(Cl)c2s1` [Compound 31.4, 2-Amino-6,7-dichloro-4-phosphonomethoxybenzothiazole], the melting point was > 250 °C (dec.).

With `O=P(O)(O)c1ccc(-c2ccccn2)o1` [Compound 15.6, 2-[2-(5-Phosphono)furanyl]pyridine], the IC50 at rat liver FBPase turned out to be 7000 nM.

With `CC(C)Cc1cn(C)nc1-c1ccc(P(=O)(O)O)o1` [Compound 19.2, 1-methyl-4-isobutyl-3-[2-(5-phosphono)furanyl]pyrazole], on human liver FBPase, the IC50 is 400 nM.

As for `CSc1nccnc1-c1ccc(P(=O)(O)O)o1` [Compound 17.6, 3-Methylthio-2-[2-(5-phosphono)furanyl]pyrazine], the IC50 at human liver FBPase stood at 620 nM.

On to `CC(C)c1sc(N)nc1C(=O)OCP(=O)(O)O` [Compound 18.20, 2-Amino-5-isopropyl-4-phosphonomethoxycarbonylthiazole], for which the results for the IC50 on rat liver FBPase and on human liver FBPase were 280 nM and 39 nM, respectively.

Take `Cc1c(Cl)c(OCP(=O)(O)O)c2nc(N)sc2c1Cl` [Compound 29.5, 2-Amino-5,7-dichloro-6-methyl-4-phosphonomethoxybenzothiazole]: the melting point is > 230 °C (dec.).

Turning to `CCc1cc(OCP(=O)(O)O)c2nc(N)sc2c1F` [Compound 34.5, 2-Amino-6-ethyl-7-fluoro-4-phosphonomethoxybenzothiazole], the melting point is > 250 °C (dec.).

Regarding `Cc1cc(OCP(=O)(O)O)c2nc(N)sc2c1` [Compound 32.2, 2-Amino-6-methyl-4-phosphonomethoxybenzothiazole], the melting point is > 250 °C (dec.).

On to `N#Cc1ccc(OCP(=O)(O)O)c2nc(N)sc12` [Compound 32.3, 2-Amino-7-cyano-4-phosphonomethoxybenzothiazole], for which the melting point was > 250 °C (dec.).

On to `Nc1ncnc2c1ncn2[C@@H]1O[C@H](COP(=O)(O)O)[C@@H](O)[C@H]1O` [AMP, reference compound], for which the IC50 at rat liver FBPase was 20000 nM.

Turning to `CCCOc1c(SC#N)cc(OCP(=O)(O)O)c2nc(N)sc12` [Compound 44.1, 2-Amino-7-propyloxy-6-thiocyano-4-phosphonomethoxy benzothiazole], the melting point is > 220 °C (dec.).

For the compound `Nc1nc(C(=O)NCP(=O)(O)O)c(Br)s1` [Compound 18.11, 2-Amino-5-bromo-4-[(N-phosphonomethyl)carbamoyl]thiazole], on human liver FBPase, the IC50 was 330 nM.

As to `Nc1nc(-c2cccc(P(=O)(O)O)n2)cs1` [Compound 3.67, 2-Amino-4-[2-(6-phosphono)pyridyl]thiazole hydrobromide], the half-inhibitory concentration (IC50) at human liver FBPase came to 2000 nM.

For the compound `COc1cc(OCP(=O)(O)O)c2nc(N)sc2c1` [Compound 45.1, 2-Amino-6-methoxy-4-phosphonomethoxybenzothiazole], the melting point is > 230 °C (dec.).

`Nc1c(F)ccc2c1nc(-c1ccc(P(=O)(O)O)o1)n2CC1CC1` [Compound B, 4-Amino-5-fluoro-1-cyclopropylmethyl-2-(2-phosphono-5-furanyl)benzimidazole]: at rat liver FBPase, the IC50 was found to be 2100 nM.

Regarding `Nc1nc(NC(=O)CP(=O)(O)O)ccc1Br` [Compound 18.25, 2-Amino-3-bromo-6-[(N-phosphonoacetyl)amino]pyridine], the IC50 on human liver FBPase was found to be 2000 nM.

As to `CCc1cc(OCP(=O)(O)O)c2nc(N)sc2c1` [Compound 42.1, 2-Amino-6-ethyl-4-phosphonomethoxybenzothiazole], the melting point is > 220 °C (dec.).

As for `Nc1nc(-c2ccccc2)nc(-c2ccc(P(=O)(O)O)o2)n1` [Compound 17.11, 2-Amino-4-phenyl-6-[2-(5-phosphono)furanyl]triazine], at human liver FBPase, the IC50 was 780 nM.

On to `Cc1cc(OCP(=O)(O)O)c2nc(N)sc2c1Cl` [Compound 48.2, 2-Amino-7-chloro-6-methyl-4-phosphonomethoxybenzothiazole], for which the melting point was > 250 °C (dec.).

Take `Cc1cc(OCP(=O)(O)O)c2nc(N)sc2c1Br` [Compound 47.1, 2-Amino-7-bromo-6-methyl-4-phosphonomethoxybenzothiazole]: the melting point was > 250 °C (dec.).

Turning to `CCCCCCc1c(C)cc(OCP(=O)(O)O)c2nc(N)sc12` [Compound 40.2, 2-Amino-6-methyl-7-(n-hexyl)-4-phosphonomethoxybenzothiazole], the melting point is > 250 °C (dec.).

For `CSc1sc(N)nc1CCC(F)(F)P(=O)(O)O` [Compound 22.2, 2-Amino-5-methylthio-4-[1-(3-phosphono-3,3-difluoro)propyl]thiazole], the IC50 at human liver FBPase was determined as 2800 nM.

For `Nc1ccc(Br)c(-c2ccc(P(=O)(O)O)o2)n1` [Compound 15.2, 6-Amino-3-bromo-2-[2-(5-phosphono)furanyl]pyridine], at rat liver FBPase, the IC50 amounted to 1300 nM.

As a reminder, the melting point is the temperature of the solid-liquid transition. What is called IC50 is the concentration that inhibits the measured activity by half.
